Article PMC4836799, “Experimental and Theoretical Evaluation of the Ethynyl Moiety as a Halogen Bioisostere” (ACS Chemical Biology, 2015)
“And” between values parts separate entries of the source, which are not always exact repeats. Equal values may be shown once.

Tests used:
T-p53C-Y220C = target: T1, T-p53C-Y220C (Homo sapiens, UniProt P04637, M133L/N239Y/N268D/V203A/Y220C); experiment: Differential scanning fluorimetry (DSF); assay type: binding; conditions: 10 μM protein
T1 construct: made in house
Description: The effect of compounds on the melting temperature of T-p53C-Y220C were monitored using SYPRO Orange (Invitrogen, USA) as a fluorescent probe, which quantitatively binds to hydrophobic protein patches exposed upon thermal denaturation. Real-time melt analysis was performed using a Corbett Rotor-Gene 6000 real-time qPCR thermocycler. Excitation and emission filters were set to 460 and 510 nm, respectively. Heating from 28 to 60 °C, a constant heating rate of 270 K/h was applied. The protein (final concentration of 10 μM) was briefly mixed with SYPRO orange (10x) in buffer (25 mM KPi pH 7.2, 150 mM NaCl, 1 mM TCEP), and compound (5 mM) dissolved in DMSO was added to give a final compound concentration of 250 μM in 5% (v/v) DMSO. The melting temperature (Tm) of the protein (10 μM) in the presence of compounds was determined from the inflection point of the melting curve. Melting temperatures were compared with control samples without compound (yielding ΔTm DSF). All samples were measured in triplicate.

[1] = target: T2, p53-Y220C DNA-binding domain (Homo sapiens, UniProt P04637, M133L/N239Y/N268D/V203A/Y220C); experiment: Competition ITC with PK5174 (1) as coupling ligand
T2 construct: made in house
Description: We assessed the binding of 3 to the stabilized DNA-binding domain of the p53 mutant Y220C (residues 94–312) using an array of biophysical techniques. […] Because the competition titration could not be performed at a c-value of 2 or higher, it was not possible to reliably decompose ΔG into ΔH and ΔS.[25]
All ITC experiments were conducted using a Microcal iTC200 calorimeter as previously described.[14] Briefly, protein and compounds were dissolved in 25 mM KPi, pH 7.2, 150 mM NaCl, 1 mM TCEP in 5% (v/v) DMSO. The cell unit contained 80 μM protein, and 2 mM compound was used for the syringe. The ITC competition experiment was conducted using 500 μM of compound 3 and 50 μM protein for the cell sample and 2 mM of compound 1 in the syringe. The actual and apparent binding constants for 1 were calculated with MicroCal Origin software using a standard one-site model. The binding constant of 3 was then calculated using an equation for ITC displacement titrations described by Zhang and Zhang[24] [drawing 2]

- Kd ([1]; competition with PK5174 (1), 500 μM compound 3, equation of Zhang and Zhang, read-out: KD determined indirectly by competition ITC): ~270 µM and 271 µM
- loss in affinity ([1]; ethynyl compound 3 versus iodo compound 2): approximately 13 fold
Compound: C#Cc1cc(C#CCOc2ccccc2)cc(CN2CCC(N(CC)CC)CC2)c1O [PK5211, 2-((4-(diethylamino)piperidin-1-yl)methyl)-6-ethynyl-4-(3-phenoxyprop-1-ynyl)phenol]
- thermal stabilization of the mutant protein (Tm) (T-p53C-Y220C): concentration-dependent thermal stabilization
- thermal stabilization of the mutant protein (Tm) (T-p53C-Y220C; listed as 3): concentration-dependent increase of the protein melting point
